Results on two molecules are retold here after patent US8921321B2, “Therapeutic strategies for prevention and treatment of alzheimer's disease” (Isis Innovation Ltd., priority 2001, dated 2014).

Test [1] concerns AD-type hyperphosphorylated tau protein. The experiment in a line: ELISA of AD-type hyperphosphorylated tau (AT8) in SH-SY5Y cell lysates. It counts as cell-based, human. The note with it: for Expression of AD-type hyperphosphorylated tau: drug alone, FIG. 6a. The method, then: (§1) SH-SY5Y cells were treated with three candidate agents: rapamycin (Rapa) at 100 ng/ml, doxorubicin (Doxo) at 1 μM and Dexrazoxane (DexRaz) at 200 μM and then tested one day (d1) and two days (d2) after treatment for the following 7 parameters, which are indicative of cell cycle defects and “AD-type” pathology:
(§2) In order to evaluate the effect of drug pre-treatment is protecting against the effects of oxidative stress cells were subjected to oxidative stress (by treatment with 120 μM H2O2) in the absence of drug treatment and after treatment with rapamycin or dexrazoxane, and then tested for the same parameters. Results are shown in FIGS. 1-7, panel b (FIG. 1b, FIG. 2b, FIG. 3b, FIG. 4b, FIG. 5b, FIG. 6b, FIG. 7b).
(§3) Finally, cells were treated with doxorubicin after treatment with rapamycin or dexrazoxane and then tested for the same parameters, to evaluate the effects of combined treatment. Results are shown in FIGS. 1-7, panel c (FIG. 1c, FIG. 2c, FIG. 3c, FIG. 4c, FIG. 5c, FIG. 6c, FIG. 7c).
(§4) SH-SY5Y human neuroblastoma cells were cultured in Dulbecco's modified Eagle's medium (DMEM)/F12 supplemented with 10% fetal calf serum (FCS, PAA Laboratories, Austria), 2 mM L-glutamine, 100 IU/ml penicillin and 100 μg/ml streptomycin (Gibco) in a humidified incubator at 37° C. and 5% CO2.
(§5) After 24 h incubation the culture medium was replaced by DMEM/F12 with 10% FCS containing various concentrations of drug. The cells were incubated for another 24 or 48 hours.
(§6) The cell cultures were repeated in identical conditions in order to analyze cell cycle kinetics by flow cytometry and to study protein expression.
(§7) The cultures prepared for protein expression assays were harvested after a short wash with cold PBS by scraping. The collected cells were lysed in 150 μl of lysis buffer containing 50 mM Tris-HCl (pH 7.4), 100 mM NaCl, 1 mM EDTA, 0.5% (v/v) Nonidet P-40, 50 mM NaF, 0.2 mM Na3VO4, 20 μg/ml phenylmethylsulfonyl fluoride, and 5 μg/ml leupeptin, and incubated on ice for 30 min. The cell lysate was centrifuged at 14,000 g for 20 min at 4° C. to remove insoluble pellets. Protein concentration was determined by the Bradford assay. ELISA assays were performed using a panel of antibodies. Secondary antibodies (anti rabbit or anti mouse as appropriate) conjugated to horseradish peroxidase were used.
For orientation: In an ELISA, binding on a coated surface is turned into a signal by an enzyme label.

For test [2], the system named is SH-SY5Y human neuroblastoma cells. Description: MTT proliferation and cell survival assay. It counts as cell-based. The note with it: drug alone: rapamycin 100 ng/ml, doxorubicin 1 μM, dexrazoxane 200 μM; vs control cultures; FIG. 1a. As to the method:
as §1, §2
Finally, cells were treated with doxorubicin after treatment with rapamycin or dexrazoxane and then tested for the same parameters, to evaluate the effects of combined treatment. […]
Cell survival and proliferation was assessed by MTT proliferation and cell survival assay, performed according to the manufacturers recommendations (Chemicon International, Ltd., Hampshire, UK) in the final 4 hours of the 24 hours period. The results of the assay were evaluated using an Opsys MR ELISA plate reader (Dynex Technologies, Middlesex, UK) at 570 nm with a reference wavelength of 630 nm.

The test system of test [3] is amyloid precursor protein (APP). The experiment in a line: ELISA of APP expression in SH-SY5Y cell lysates. It counts as cell-based, human. The note with it: for Expression of APP: drug alone, FIG. 5a. The method, then: as §1, §2, §3, §4, §5, §6, §7
The test system of test [4] is AD-type paired helical filament (PHF) tau protein. Description: ELISA of AD-type PHF tau (Tau2) in SH-SY5Y cell lysates. It counts as cell-based, human. The note with it: for Expression of AD-type PHF tau: drug alone, FIG. 7a. The method, then:
as §1, §2, §3, §4, §5, §6, §7

Test [5] relates to SH-SY5Y human neuroblastoma cells. The experiment in a line: Relative lengthening of the G1 phase of the cell cycle by flow cytometry. Type of test: cell-based. As to conditions: drug alone, FIG. 3a. The method, then:
as §1, §2
Finally, cells were treated with doxorubicin after treatment with rapamycin or dexrazoxane and then tested for the same parameters, to evaluate the effects of combined treatment. Results are shown in FIGS. 1-7, panel c (FIG. 1c, FIG. 2c, FIG. 3c, FIG. 4c, FIG. 5c, FIG. 6c, FIG. 7c). […]
The cultures prepared for flow cytometry were harvested after a short incubation with Trypsin EDTA (Sigma) in PBS. […] On flow cytometry the ratio of G1 and G2 cells was measured. […]
(A flow cytometer gives signals particle by particle.)

The test system is the same in test [6]. Description: Relative lengthening of the G2 phase of the cell cycle by flow cytometry. It counts as cell-based. As to the method:
as §1, §2, §3, §4, §5, §6
(§8) The cultures prepared for flow cytometry were harvested after a short incubation with Trypsin EDTA (Sigma) in PBS. Cells were fixed in 70% ice-cold alcohol. Prior to staining with propidium iodide (PI) the samples were washed twice in PBS containing Triton-X at 0.1%. On flow cytometry the ratio of G1 and G2 cells was measured. Cells with sub-G1 DNA content were regarded as the apoptotic fraction.

Another test deals with AD-related proteins. Description: ELISA of AD-related proteins overall (APP, phospho tau, PHF tau) in SH-SY5Y cell lysates. It counts as cell-based, human. The method, then: as §1, §2, §3, §4, §5, §6
The cultures prepared for protein expression assays were harvested after a short wash with cold PBS by scraping. The collected cells were lysed in 150 μl of lysis buffer containing 50 mM Tris-HCl (pH 7.4), 100 mM NaCl, 1 mM EDTA, 0.5% (v/v) Nonidet P-40, 50 mM NaF, 0.2 mM Na3VO4, 20 μg/ml phenylmethylsulfonyl fluoride, and 5 μg/ml leupeptin, and incubated on ice for 30 min. […] Protein concentration was determined by the Bradford assay. […]

In test [7] the test system is SH-SY5Y human neuroblastoma cells. The experiment in a line: Apoptosis by flow cytometry (sub-G1 DNA content). As to conditions: drug alone: rapamycin 100 ng/ml, doxorubicin 1 μM, dexrazoxane 200 μM, FIG. 2a. Type of test: cell-based. As to the method: as §1, §2, §3, §4, §5, §6, §8
[8] abbreviates: drug alone, after 1 day (day 2), FIG. 4a.

For `C[C@@H](CN1CC(=O)NC(=O)C1)N1CC(=O)NC(=O)C1` [dexrazoxane, Dexrazoxane], the “Expression of AD-type hyperphosphorylated tau” value in test [1] (day two) is recorded as “by day two all three proteins were reduced in the cell lysates”; in test [1] (first day) it was “increased the expression of all three AD-related proteins on the first day”. The Phospho-tau production entry in test [1] (drug pre-treatment followed by doxorubicin, FIG. 6c) is given as “did not significantly effect the phospho-tau production”. In test [2], the “Cell survival and proliferation (cell numbers)” value is reported as “reduced cell numbers only after 2 days of treatment”. In addition, the “Expression of APP” value in test [3] (day two) is given as “by day two all three proteins were reduced in the cell lysates”; in test [3] (first day) it was “increased the expression of all three AD-related proteins on the first day”. For the same molecule, the APP production result in test [3] (drug pre-treatment followed by doxorubicin, FIG. 5c) is “reduction of the APP and PHF-tau production”. Also, the “Expression of AD-type PHF tau” value in test [4] (day two) is reported as “by day two all three proteins were reduced in the cell lysates”; in test [4] (first day), “increased the expression of all three AD-related proteins on the first day”. Also, the PHF tau formation entry in test [4] (drug pre-treatment followed by doxorubicin, FIG. 7c) is “reduction of the APP and PHF-tau production”. Moreover, the “Length of the G1 phase of the cell cycle” value in test [5] is on record as “acceleration of the G1 phase of the cell cycle”. The “Length of the G2 phase of the cell cycle” value is reported as “massive G2 lengthening on day 2” in test [6] (setting [8]); “little change in G2 time on day one” in test [6] (drug alone, day one, FIG. 4a); “increased the G2 lengthening effect of doxorubicin” in test [6] (drug pre-treatment followed by doxorubicin, FIG. 4c). In addition, the “AD-related protein expression (overall)” value in the test with AD-related proteins (drug alone) is “effectively reduced AD-related protein expression after two days in culture”; with AD-related proteins (drug pre-treatment followed by doxorubicin, summary statement) it was “protective effects against AD-related protein expression became more robust”. In addition, the Apoptosis result is reported as “did not seem to protect cells against apoptotic cell death as efficiently as rapamycin did” in test [7] and “did not confer protection against cell death on its own” in test [7] (listed as Dexrazoxane).
In the case of `COc1cccc2c1C(=O)c1c(O)c3c(c(O)c1C2=O)C[C@@](O)(C(=O)CO)C[C@@H]3O[C@H]1C[C@H](N)[C@H](O)[C@H](C)O1` [doxorubicin], the “Expression of AD-type hyperphosphorylated tau” value in test [1] is “reduction of phospho-tau”. In addition, the “Cell survival and proliferation (cell numbers)” value in test [2] is reported as “reduced cell numbers”. Moreover, the “Expression of APP” value in test [3] is “elevated expression of APP”. For the same molecule, the “Expression of AD-type PHF tau” value in test [4] is on record as “elevated expression”. The “Length of the G1 phase of the cell cycle” value in test [5] (after 1 day (day 2)) is on record as “effect on G1 was reversed after 1 day”. In addition, the “Length of the G2 phase of the cell cycle” value is recorded as “lengthening of the G2 phase” in test [6] (drug alone, FIG. 4a); “lengthening of the G2 phase of the cell cycle” in test [6] (drug alone, FIG. 4a, listed as Doxorubicin); “G2 inhibitory effect diminished” in test [6] (setting [8]). For the same molecule, the “AD-related protein expression (overall)” value in the test with AD-related proteins (drug alone) was “elevation of AD-related protein expression”. The Apoptosis entry is given as “seems to be protective against apoptotic cell death” in test [7] and “appeared to be protective against apoptosis” in test [7] (listed as Doxorubicin).
